Source: patent US20090285773A1, “Hepatitis C Virus Inhibitors” (Bristol-Myers Squibb Company, priority 2008, published 2009)
pIC50: −log10 of the molar value.

Target: HCV NS3/4A protease complex, BMS strain (genotype 1a) (UniProt P27958, species not given/STRAIN_BMS)
Test: FRET peptide assay, HCV NS3/4A protease complex, BMS strain
Type: biochemical
Settings: read-out: IC50 against the NS3/4A BMS strain in the enzyme assay
Source text: HCV NS3 protease complexes, derived from the BMS strain, H77 strain or J4L6S strain, were generated, as described below. These purified recombinant proteins were generated for use in a homogeneous assay (see below) to provide an indication of how effective compounds of the present disclosure would be in inhibiting HCV NS3 proteolytic activity.
Serum from an HCV-infected patient was obtained from Dr. T. Wright, San Francisco Hospital. […]
In order to monitor HCV NS3/4A protease activity, an NS3/4A peptide substrate was used. […] The peptide also contains a fluorescence donor, EDANS, near one end of the peptide and an acceptor, DABCYL, near the other end. The fluorescence of the peptide is quenched by […] resonance energy transfer (RET) between the donor and the acceptor, but as the NS3 protease cleaves the peptide the products are released from RET quenching and the fluorescence of the donor becomes apparent.
The peptide substrate was incubated with one of the three recombinant NS3/4A protease complexes, in the absence or presence of a compound of the present disclosure. The inhibitory effects of a compound were determined by monitoring the formation of fluorescent reaction product in real time using a Cytofluor Series 4000. […]

Chain of HCV NS3/4A protease complex, BMS strain (genotype 1a) (P27958 1027-1657, change not shown, one chain of several): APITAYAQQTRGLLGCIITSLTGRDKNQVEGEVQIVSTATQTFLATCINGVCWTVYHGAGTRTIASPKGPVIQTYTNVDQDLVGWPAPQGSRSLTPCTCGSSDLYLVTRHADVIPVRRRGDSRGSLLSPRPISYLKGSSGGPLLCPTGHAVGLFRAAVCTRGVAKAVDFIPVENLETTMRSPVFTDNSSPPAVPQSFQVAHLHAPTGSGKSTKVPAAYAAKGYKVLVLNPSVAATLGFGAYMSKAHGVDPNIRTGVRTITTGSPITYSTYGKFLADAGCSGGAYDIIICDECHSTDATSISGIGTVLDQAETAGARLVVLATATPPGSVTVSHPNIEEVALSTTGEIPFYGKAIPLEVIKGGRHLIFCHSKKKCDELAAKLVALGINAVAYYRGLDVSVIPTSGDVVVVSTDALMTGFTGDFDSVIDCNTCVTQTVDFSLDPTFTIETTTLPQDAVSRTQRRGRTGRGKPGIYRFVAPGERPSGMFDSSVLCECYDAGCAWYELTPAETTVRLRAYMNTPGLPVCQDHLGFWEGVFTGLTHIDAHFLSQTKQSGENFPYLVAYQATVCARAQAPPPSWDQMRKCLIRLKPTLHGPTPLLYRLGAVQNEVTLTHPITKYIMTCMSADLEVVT

Work on COc1ccc2c(O[C@@H]3C[C@H]4C(=O)N[C@]5(C(=O)NS(=O)(=O)C6CC6)C[C@H]5/C=C\CCCCC[C@H](Nc5ccc(OC)nc5)C(=O)N4C3)nccc2c1 (single isomer, unassigned) [Compound 1] yielded a pIC50 of 8.06.
